Reference: patent publication US7321074B1, “Melanocortin-3 receptor deficient cells, non-human transgenic animals and methods of selecting compounds which regulate body weight” (Merck & Co., Inc., priority 1999, dated 2008)

Test: Peripheral MTII administration: food consumption in MC-3R−/− and WT mice
Conditions: single intraperitoneal injection, 10 mg/kg, n=9
Source text: Food intake measurements—MC-3R^−/−, MC-3R^+/−, and WT mice were separated into individual microisolator cages at approximately one month of age. For studies involving regular mouse chow (Teklad 7012; 5% fat, 19% protein, and 5% of fiber; 3.75 grams/Kcal and 14.8% Kcal. from fat), pellet food was provided in wire cage tops containing food hoppers and food was weighed weekly. For studies involving a high fat diet (Teklad 97070; 33.5% fat, 27.4% protein, and 26.5% carbohydrates; 60% calories from fat), ground food was provided in a glass jar located in the cage and the jar containing the food was weighed either daily or weekly.
Peripheral MTII administration—For seven consecutive days, individually-housed 23-25-week-old male MC-3R^−/− (n=9) and WT (n=9) mice received an intraperitoneal (ip) injection of a sterile 0.9% NaCl vehicle solution approximately 30 min before the onset of the dark phase of the light cycle. At the same time on the eighth consecutive day of the study, mice received an ip injection of MTII at a dose of 10 mg/kg delivered in vehicle. Body and food (Teklad 7012) weights were measured and recorded daily approximately 15 min prior to injection.

MTII
reduction of food consumption over a 24-h period relative to a 2-day vehicle treatment baseline (male MC-3R−/− mice): 16.9±7.0 % reduction
reduction of food consumption over a 24-h period relative to a 2-day vehicle treatment baseline (male WT mice): 11.1±4.3 % reduction
